Source: ChEMBL document CHEMBL4130624, “Optimization of 1,4-Oxazine β-Secretase 1 (BACE1) Inhibitors Toward a Clinical Candidate” (J Med Chem, 2018)

What was measured:
Beta-secretase 1 [1] = target: T1, Beta-secretase 1 (Homo sapiens, UniProt P56817); assay: Inhibition of BACE1 in human SKNBE2 cells transfected with APP695 protein assessed as reduction in amyloid beta (1 to 42) levels after 18 hrs by sandwich alphalisa assay; type: cell-based
Beta-secretase 1 [2] = target: T1, Beta-secretase 1; assay: Inhibition of BACE1 (1 to 454 residues) (unknown origin) using APP derived polypeptide harboring Lys-Met/Asn-Leu mutation as substrate by FRET assay
TK6 [3] = assay: Genotoxicity in human TK6 cells up to […] after 24 hrs in absence of rat liver S9 fraction by micronucleus assay; type: toxicity, cell-based; details: tk6, 24 h
TK6 [4] = assay: Genotoxicity in human TK6 cells at 500 ug/ml after 24 hrs in presence of rat liver S9 fraction by micronucleus assay; type: toxicity, cell-based; details: s9, 24 h
[5] = Ratio of total unbound drug level in brain to plasma of in CD1 Swiss specific pathogen free mouse at 10 mg/kg, po after 4 hrs; type: ADME, organism-based; details: read-out: K(p,uu,brain)
[6] = Ratio of total drug level in brain to plasma of in CD1 Swiss specific pathogen free mouse at 10 mg/kg, po after 4 hrs; type: ADME, organism-based
Mus musculus [7] = assay: Antialzheimer activity in CD1 Swiss specific pathogen free mouse assessed as reduction in amyloid beta (1 to 40) levels at 10 mg/kg, po measured after 2 hrs post dose by ELISA; type: functional; set-up: scale not given: the % may be the effect or the level left
Mus musculus [8] = assay: Antialzheimer activity in CD1 Swiss specific pathogen free mouse assessed as reduction in amyloid beta (1 to 40) levels at 10 mg/kg, po measured after 1 hr post dose by ELISA; type: functional; set-up: scale not given: the % may be the effect or the level left
[9] = target: Voltage-gated inwardly rectifying potassium channel KCNH2 (Homo sapiens, UniProt Q12809); assay: Inhibition of human ERG expressed in HEK293 cell membranes by radioligand binding assay
Voltage-gated inwardly rectifying potassium channel KCNH2, sequence (Q12809 whole entry): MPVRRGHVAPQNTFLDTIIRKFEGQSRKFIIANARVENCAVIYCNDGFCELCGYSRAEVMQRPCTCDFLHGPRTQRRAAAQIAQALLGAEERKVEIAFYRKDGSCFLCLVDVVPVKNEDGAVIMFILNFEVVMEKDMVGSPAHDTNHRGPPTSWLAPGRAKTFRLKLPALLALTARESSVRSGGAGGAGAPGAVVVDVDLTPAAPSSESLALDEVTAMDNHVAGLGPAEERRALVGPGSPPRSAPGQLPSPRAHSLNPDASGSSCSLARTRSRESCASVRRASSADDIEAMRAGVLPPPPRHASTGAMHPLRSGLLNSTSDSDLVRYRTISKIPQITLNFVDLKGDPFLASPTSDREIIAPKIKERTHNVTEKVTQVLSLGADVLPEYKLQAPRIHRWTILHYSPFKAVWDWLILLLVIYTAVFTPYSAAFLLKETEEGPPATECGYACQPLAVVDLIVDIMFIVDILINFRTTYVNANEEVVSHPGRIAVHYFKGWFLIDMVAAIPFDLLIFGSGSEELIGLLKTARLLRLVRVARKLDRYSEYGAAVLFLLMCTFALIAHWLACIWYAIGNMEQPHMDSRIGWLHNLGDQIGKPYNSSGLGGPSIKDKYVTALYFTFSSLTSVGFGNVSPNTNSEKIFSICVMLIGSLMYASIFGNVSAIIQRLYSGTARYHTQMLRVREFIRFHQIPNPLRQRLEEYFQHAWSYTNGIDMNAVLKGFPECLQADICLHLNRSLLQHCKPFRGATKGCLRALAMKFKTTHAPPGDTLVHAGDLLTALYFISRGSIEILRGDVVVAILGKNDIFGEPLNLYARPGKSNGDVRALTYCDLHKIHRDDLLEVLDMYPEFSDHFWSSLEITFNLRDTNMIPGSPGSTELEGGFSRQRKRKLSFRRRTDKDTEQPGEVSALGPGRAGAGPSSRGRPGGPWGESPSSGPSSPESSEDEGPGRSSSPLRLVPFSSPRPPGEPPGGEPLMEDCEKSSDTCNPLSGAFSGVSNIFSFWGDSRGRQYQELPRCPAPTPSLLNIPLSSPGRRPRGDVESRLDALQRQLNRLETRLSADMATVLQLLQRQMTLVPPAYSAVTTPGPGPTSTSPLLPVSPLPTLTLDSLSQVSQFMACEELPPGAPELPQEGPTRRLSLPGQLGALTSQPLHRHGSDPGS

[10] = Fraction unbound in mouse plasma at 5 uM after 4.5 hrs by HPLC-MS/MS method based rapid equilibrium dialysis; type: ADME, cell-free
Mus musculus [11] = assay: Antialzheimer activity in CD1 Swiss specific pathogen free mouse assessed as reduction in amyloid beta (1 to 40) levels at 10 mg/kg, po measured after 4 hrs post dose by ELISA; type: functional; set-up: scale not given: the % may be the effect or the level left
[12] = test system: MDR1 (P-gp) (Homo sapiens); assay: Apparent permeability across apical to basolateral side in pig LLC cells transfected with human MDR1 at 5 uM in absence of elacridar by LC-MS/MS analysis; details: LLC-PK1
[13] = Dissociation constant, pKa of the compound at 25 degC by potentiometric titration assay; type: physicochemical
[14] = Fraction unbound in rat brain at 5 uM after 5 hrs by HPLC-MS/MS method based rapid equilibrium dialysis; type: ADME, tissue-based
hERG (KCNH2) = hERG (KCNH2) (Homo sapiens, UniProt Q12809); assay: Inhibition of human ERG expressed in HEK293 cells assessed as reduction in outward potassium current at 3 uM at holding potential was -80 mV after 5 mins by patch clamp assay; type: cell-based; details: HEK293 cells that express hERG
hERG (KCNH2), sequence (Q12809 whole entry): as above

[15] = Drug metabolism in mouse liver microsomes at 1 uM after 15 mins in presence of NADPH by HPLC-MS/MS analysis; type: ADME, microsome; details: read-out: Drug metabolism
[16] = Drug metabolism in human liver microsomes at 1 uM after 15 mins in presence of NADPH by HPLC-MS/MS analysis; type: ADME, microsome; details: read-out: Drug metabolism
[17] = Drug uptake in mouse brain at 30 mg/kg, po measured at 2 to 4 hrs; type: ADME, organism-based; details: in vivo
HepG2 = assay: Cytotoxicity against human HepG2 cells assessed as effect on cell health indicators after 72 hrs by automated fluorescence microscopy based high content screening based assay; type: ADME; details: hepg2, 72 h
[18] = Drug metabolism in mouse liver hepatocytes at 1 uM after 60 mins in presence of NADPH by HPLC-MS/MS analysis; type: ADME, cell-based, Hepatocyte; details: read-out: Drug metabolism
[19] = Cmax in anesthetized guinea pig; type: ADME, organism-based, Cavia porcellus; details: in vivo
Canis familiaris = assay: Antialzheimer activity in po dosed Beagle dog assessed as reduction in amyloid beta (1 to 40) levels measured after 1 hr post dose by ELISA; type: functional, organism-based, Canis lupus familiaris
Cavia porcellus = assay: Cardiotoxicity in anesthetized guinea pigs assessed as drug level causing QTcB prolongation dosed up to 10 mg/kg, iv administered over a period of 5 min at 15 min interval by ECG analysis; type: toxicity, organism-based; details: guinea pig, in vivo
[20] = Drug uptake in mouse brain at 10 mg/kg, po measured at 2 to 4 hrs; type: ADME, organism-based; details: in vivo
[21] = Plasma concentration in mouse at 10 mg/kg, po after 4 hrs; type: ADME, organism-based

T1 sequence (P56817 whole entry, the tested form may be a part): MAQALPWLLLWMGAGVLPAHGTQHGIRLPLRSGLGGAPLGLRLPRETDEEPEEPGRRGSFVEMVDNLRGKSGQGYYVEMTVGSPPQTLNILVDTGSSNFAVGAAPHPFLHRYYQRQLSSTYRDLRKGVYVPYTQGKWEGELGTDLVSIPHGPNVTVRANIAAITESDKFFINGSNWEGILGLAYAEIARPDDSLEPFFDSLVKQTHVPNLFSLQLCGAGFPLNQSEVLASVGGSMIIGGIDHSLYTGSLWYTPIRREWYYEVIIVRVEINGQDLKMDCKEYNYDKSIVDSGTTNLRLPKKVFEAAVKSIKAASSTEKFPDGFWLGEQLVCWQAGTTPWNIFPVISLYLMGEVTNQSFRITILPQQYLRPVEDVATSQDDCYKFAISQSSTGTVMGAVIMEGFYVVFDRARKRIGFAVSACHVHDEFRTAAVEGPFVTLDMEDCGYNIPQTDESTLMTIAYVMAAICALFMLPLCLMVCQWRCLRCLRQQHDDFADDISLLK

Structure (SMILES): C[C@]1(c2cc(NC(=O)c3cnc(NCC(F)(F)F)cn3)ccc2F)N=C(N)CO[C@H]1C(F)(F)F
- IC50 (Beta-secretase 1 [1]): 4500 nM
- IC50 (Beta-secretase 1 [2]): > 10000 nM

Structure (SMILES): C[C@]1(c2cc(N)ccc2F)N=C(N)CO[C@H]1C(F)(F)F
- Activity (TK6 [3]): Non-Toxic
- Activity (TK6 [4]): Non-Toxic

Structure (SMILES): COc1cnc(C(=O)Nc2ccc(F)c([C@@]3(C)N=C(N)CO[C@@H]3F)c2)cn1
- Kp uu at 4 h [5]: 0.09
- Kp at 4 h [6]: 0.6
- Activity (Mus musculus [7]): 65%
- Activity (Mus musculus [8]): 39%
- IC50 [9]: > 10000 nM

Structure (SMILES): C[C@]1(c2cc(NC(=O)c3cnc(NC4CC4)cn3)ccc2F)N=C(N)CO[C@H]1C(F)(F)F
- IC50 (Beta-secretase 1 [1]): 603 nM
- IC50 (Beta-secretase 1 [2]): 3020 nM

Structure (SMILES): C[C@@]1(c2cc(N/C=C/c3ccc(C#N)cn3)ccc2F)COCC(N)=N1
- IC50 (Beta-secretase 1 [1]): 251 nM
- IC50 (Beta-secretase 1 [2]): 2340 nM

Structure (SMILES): C[C@]1(c2cc(NC(=O)c3cnc(OCC(F)(F)F)cn3)ccc2F)N=C(N)CO[C@H]1C(F)(F)F
- IC50 (Beta-secretase 1 [1]): 20.9 nM
- IC50 (Beta-secretase 1 [2]): 24.5 nM

Structure (SMILES): COc1cnc(C(=O)Nc2ccc(F)c([C@@]3(C)N=C(N)CO[C@H]3C(F)F)c2)cn1
- Kp uu at 4 h [5]: 0.07
- IC50 (Beta-secretase 1 [1]): 4.9 nM
- fraction unbound at 4.5 h, 5 µM [10]: 0.279
- Activity (Mus musculus [11]): 40%
- Kp at 4 h [6]: 0.4
- Activity (Mus musculus [7]): 38%
- Papp A→B at 5 µM [12]: 4.8 ×10⁻⁶ cm/s
- pKa [13]: 8.4
- Activity (Mus musculus [8]): 11%
- IC50 [9]: > 10000 nM
- fraction unbound at 5 h, 5 µM [14]: 0.047
- inhibition at 5 min, 3 µM (hERG (KCNH2)): 24%
- IC50 (Beta-secretase 1 [2]): 11.4 nM

Structure (SMILES): C[C@]1(c2cc(NC(=O)c3ncc(C#N)cc3Cl)ccc2F)N=C(N)CO[C@H]1C(F)(F)F
- metabolised at 0.25 h, 1 µM [15]: 38%
- metabolised at 0.25 h, 1 µM [16]: 38%
- inhibition at 5 min, 3 µM (hERG (KCNH2)): 13%

Structure (SMILES): C[C@]1(c2cc(NC(=O)c3ncc(C#N)cc3F)ccc2F)N=C(N)CO[C@@H]1F
- metabolised at 0.25 h, 1 µM [15]: 19%
- IC50 (Beta-secretase 1 [1]): 12.2 nM
- Papp A→B at 5 µM [12]: 1.05 ×10⁻⁶ cm/s
- metabolised at 0.25 h, 1 µM [16]: 11%
- IC50 [9]: > 10000 nM
- inhibition at 5 min, 3 µM (hERG (KCNH2)): 24%
- Drug uptake [17]: Not Active
- IC50 (Beta-secretase 1 [2]): 18.4 nM

Structure (SMILES): C[C@]1(c2cc(-c3cncnc3)ccc2F)N=C(N)CO[C@H]1C(F)(F)F (racemic)
- metabolised at 0.25 h, 1 µM [15]: 51%
- IC50 (Beta-secretase 1 [1]): 631 nM
- metabolised at 0.25 h, 1 µM [16]: 7%
- IC50 (Beta-secretase 1 [2]): 1860 nM

Structure (SMILES): COc1cnc(C(=O)Nc2ccc(F)c([C@@]3(C)N=C(N)CO[C@H]3C(F)(F)F)c2)cn1
- Kp uu at 4 h [5]: 0.23
- metabolised at 0.25 h, 1 µM [15]: 19%
- MTC (HepG2): 15.6 µM
- fraction unbound at 4.5 h, 5 µM [10]: 0.155
- Activity (Mus musculus [11]): 29%
- Kp at 4 h [6]: 1.81
- Activity (Mus musculus [7]): 37%
- Papp A→B at 5 µM [12]: 13.7 ×10⁻⁶ cm/s
- metabolised at 0.25 h, 1 µM [16]: 2%
- pKa [13]: 7.8
- Activity (Mus musculus [8]): 23%
- IC50 [9]: > 10000 nM
- fraction unbound at 5 h, 5 µM [14]: 0.02
- inhibition at 5 min, 3 µM (hERG (KCNH2)): 19%

Structure (SMILES): COCCOc1cnc(C(=O)Nc2ccc(F)c([C@@]3(C)N=C(N)CO[C@H]3C(F)(F)F)c2)cn1
- metabolised at 0.25 h, 1 µM [15]: 59%
- IC50 (Beta-secretase 1 [1]): 12.5 nM
- metabolised at 0.25 h, 1 µM [16]: 56%
- IC50 (Beta-secretase 1 [2]): 40.7 nM

Structure (SMILES): C[C@]1(c2cc(NC(=O)c3ccc(C#N)cn3)ccc2F)N=C(N)CO[C@@H]1F
- metabolised at 1 h, 1 µM [18]: 0%
- Cmax [19]: 475 ng/mL
- IC50 [9]: 8000 nM
- fEC50 (Canis familiaris): 0.023 µM
- LOAEL (Cavia porcellus): 475 ng/mL
- fLOAEL (Cavia porcellus): 0.55 µM
- fNOAEL (Cavia porcellus): 0.2 µM

Structure (SMILES): COc1cnc(C(=O)Nc2ccc(F)c([C@@]3(C)N=C(N)COC3=C(F)F)c2)cn1
- Kp uu at 4 h [5]: 0.11
- IC50 (Beta-secretase 1 [1]): 35.1 nM
- fraction unbound at 4.5 h, 5 µM [10]: 0.146
- Activity (Mus musculus [11]): 7%
- Kp at 4 h [6]: 0.97
- Activity (Mus musculus [7]): 6%
- Papp A→B at 5 µM [12]: 8.63 ×10⁻⁶ cm/s
- pKa [13]: 7.9
- IC50 [9]: > 10000 nM
- fraction unbound at 5 h, 5 µM [14]: 0.017
- IC50 (Beta-secretase 1 [2]): 151 nM

Structure (SMILES): C[C@]1(c2cc(NC(=O)c3cnc(OC(F)(F)C(F)(F)F)cn3)ccc2F)N=C(N)CO[C@H]1C(F)(F)F
- IC50 (Beta-secretase 1 [1]): 49 nM
- IC50 (Beta-secretase 1 [2]): 30.2 nM

Structure (SMILES): C[C@]1(c2cc(NC(=O)c3cnc(N4CCC4)cn3)ccc2F)N=C(N)CO[C@H]1C(F)(F)F
- IC50 (Beta-secretase 1 [1]): 115 nM
- IC50 (Beta-secretase 1 [2]): 457 nM

Structure (SMILES): C[C@]1(c2cc(NC(=O)c3ncc(C#N)cc3Cl)ccc2F)N=C(N)CO[C@@H]1F
- Drug uptake [20]: Not Active
- metabolised at 0.25 h, 1 µM [15]: 0%
- IC50 (Beta-secretase 1 [1]): 15.5 nM
- metabolised at 1 h, 1 µM [18]: 55%
- concentration at 4 h [21]: 38 ng/mL
- Papp A→B at 5 µM [12]: 3.06 ×10⁻⁶ cm/s
- metabolised at 0.25 h, 1 µM [16]: 1%
- IC50 [9]: > 10000 nM
- inhibition at 5 min, 3 µM (hERG (KCNH2)): 19%
- IC50 (Beta-secretase 1 [2]): 10.7 nM

Structure (SMILES): C[C@]1(c2cc(NC(=O)c3ccc(Cl)cn3)ccc2F)N=C(N)CO[C@H]1C(F)(F)F
- metabolised at 0.25 h, 1 µM [15]: 48%
- MTC (HepG2): 13.6 µM
- metabolised at 0.25 h, 1 µM [16]: 0%
- inhibition at 5 min, 3 µM (hERG (KCNH2)): 27%
